pKi: −log10 of the molar value.
Experiments:
[1] = molecular target: T1, KOR (Homo sapiens, UniProt P41145); experiment: Opioid secondary binding, KOR (Tables 4, 5, 8, 9); conditions: Opioid secondary binding activity for Formula 10 analogs; read-out: KOR, Ki
[2] = molecular target: MOR (Homo sapiens, UniProt P35372); experiment: Opioid secondary binding, MOR (Tables 4, 5, 8); conditions: Opioid secondary binding activity for Formula 10 analogs; read-out: MOR, Ki
[3] = molecular target: T1, KOR; experiment: [35S]GTPγS binding functional agonist assay on membranes of CHO cells expressing hKOR (reference agonist U69593); type: biochemical; set-up: expressed in transfected cells; host or cells: CHO cells, stably transfected; crude membrane fractions; conditions: for KOR agonist (average percent efficacy relative to cognate agonist): test compound at 10 micromolar, N=4, reference agonist = 100%, CHO-cell line expressing hKOR; for Emax values relative to U69593: [35S]GTPγS data-fit top relative to reference agonist U69593
Protocol: The compounds prepared herein were tested for bioactivity with opioid receptors. Agonist assays: Data represent the percent efficacy (relative to cognate agonist) of the test compound at 10 micromolar. The response to a saturating concentration of a reference antagonist or to vehicle (usually none or negligible) is set to 0%. […] The response inhibition elicited by a saturating concentration of reference antagonist is set to 100%; the response inhibition (usually none or negligible) elicited by vehicle is set to 0%. The following tables provide data related to the bioactivity for opioid receptors of the compounds described herein.
Table 6 provides data that represent the average percent efficacy (N=4; relative to cognate agonist) of the test compound at 10 micromolar concentration. The response to a saturating concentration of cognate/reference agonist is set to 100%; the response to a saturating concentration of a reference antagonist or to vehicle (usually none or negligible) is set to 0%. All functional assays are performed on stably transfected CHO-cell lines expressing hKOR, hMOR or hDOR.
(§1) Serial dilutions of the test and reference compounds are made in binding buffer at 2× assay concentration (final assay concentrations ranging from 0.1 nM to 10 μM). Crude membrane fractions (1.8 to 3.5 cm2/well) (prepared from 10-cm plates by harvesting PBS-rinsed monolayers, resuspending and lysing in chilled, hypotonic 50 mM Tris-HCl, pH 7.4, centrifuging at 20,000×g, decanting the supernatant and storing at −80 degrees centigrade; typically, one 10-cm plate provides sufficient material for 24 wells) are resuspended in 1.2 ml of assay buffer containing 20 μM GDP, wheat germ agglutinin (WGA)-coated scintillation proximity beads (2.4 mg), and [35S]GTPγS (300 pM final). The suspension is then added (50 μl/well) to 50 μl of the 2× test or reference compounds (each concentration assayed in triplicate) in flexible transparent PET 96-well plates. The reaction plate is sealed and incubated for 90 min at room temperature, then centrifuged for 5 min at 216×g, and finally loaded into a Wallac MicroBeta TriLux counter. Non-specific [35S]GTPγS binding is assessed at the maximum concentration of reference agonist in the presence of 10 μM antagonist. The background signal is measured at 10 μM reference agonist in the presence of 10 μM unlabeled GTPγS. Raw data (dpm) representing total [35S]GTPγS binding (i.e., specific+non-specific binding) are calculated as a percentage of the maximum response by the reference agonist (in this case U69593).
as §1, with “GTPγS.” for “GTPγS. Raw data (dpm) representing total [35S]GTPγS binding (i.e., specific+non-specific binding) are calculated as a percentage of the maximum response by the reference agonist (in this case U69593).”

[4] = molecular target: DOR (Homo sapiens, UniProt P41143); experiment: Opioid secondary binding, DOR (Table 4); conditions: Opioid secondary binding activity for Formula 10 analogs
DOR, sequence (P41143 whole entry): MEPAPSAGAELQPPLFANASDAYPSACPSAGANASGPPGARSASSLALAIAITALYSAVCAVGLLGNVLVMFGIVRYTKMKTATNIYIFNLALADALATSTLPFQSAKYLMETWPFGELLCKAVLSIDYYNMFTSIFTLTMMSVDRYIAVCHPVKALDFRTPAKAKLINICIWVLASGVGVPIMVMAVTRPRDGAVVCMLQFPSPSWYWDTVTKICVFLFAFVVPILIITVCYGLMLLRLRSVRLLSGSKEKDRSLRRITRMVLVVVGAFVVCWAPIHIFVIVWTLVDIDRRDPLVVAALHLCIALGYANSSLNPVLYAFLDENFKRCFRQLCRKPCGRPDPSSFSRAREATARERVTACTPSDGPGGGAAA

T1 sequence (P41145 whole entry): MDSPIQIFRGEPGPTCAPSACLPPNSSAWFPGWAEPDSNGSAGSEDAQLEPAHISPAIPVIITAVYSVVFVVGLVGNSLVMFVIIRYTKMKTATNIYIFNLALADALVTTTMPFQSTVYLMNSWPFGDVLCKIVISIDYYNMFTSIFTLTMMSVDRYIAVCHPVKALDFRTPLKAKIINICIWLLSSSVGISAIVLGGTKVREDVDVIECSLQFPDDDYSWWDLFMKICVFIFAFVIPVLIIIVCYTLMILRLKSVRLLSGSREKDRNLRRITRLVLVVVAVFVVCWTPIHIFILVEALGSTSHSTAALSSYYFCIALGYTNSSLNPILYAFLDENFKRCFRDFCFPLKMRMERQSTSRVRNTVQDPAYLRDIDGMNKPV
MOR, sequence (P35372 whole entry): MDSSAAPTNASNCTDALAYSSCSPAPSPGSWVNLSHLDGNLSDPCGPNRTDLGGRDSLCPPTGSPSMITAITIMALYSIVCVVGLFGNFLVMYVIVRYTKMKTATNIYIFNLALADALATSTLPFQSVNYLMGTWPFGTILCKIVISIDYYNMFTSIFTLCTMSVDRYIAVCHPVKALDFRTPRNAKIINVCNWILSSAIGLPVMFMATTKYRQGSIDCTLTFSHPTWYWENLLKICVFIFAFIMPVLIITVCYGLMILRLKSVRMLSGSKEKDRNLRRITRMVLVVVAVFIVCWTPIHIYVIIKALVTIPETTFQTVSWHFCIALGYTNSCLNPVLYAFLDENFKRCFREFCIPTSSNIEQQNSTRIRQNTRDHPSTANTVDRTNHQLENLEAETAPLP

SMILES | pKi [1] | pKi [2] | KOR agonist (average percent efficacy relative to cognate agonist) [3] | pKi [4] | Emax values relative to U69593 [3]
O=C(OCc1ccccc1)C(Cc1ccccc1)NC(=O)C1CC=CC2CCN(Cc3ccc(Cl)cc3)C(=O)C21 (mixture of isomers) [compound 11813] | 5.94 | 5.72 | – | – | –
O=C(NCCc1ccccc1)[C@@H]1CC=C[C@@H]2CCN(Cc3ccc(Cl)c(Cl)c3)C(=O)[C@@H]21 (racemic) [compound 5084] | 5.32 | 5.28 | – | – | –
O=C(Nc1ccc(F)c(F)c1)[C@@H]1CC=C[C@@H]2CCN(Cc3ccc(Cl)c(Cl)c3)C(=O)[C@@H]21 (racemic) [compound 5085] | 5.53 | 5.33 | – | – | –
O=C([C@@H]1CC=C[C@@H]2CCN(C3CCCCC3)C(=O)[C@@H]21)N1CCOCC1 (racemic) [compound 8910] | 5.53 | – | 42.7% | – | –
O=C([C@@H]1CC=C[C@@H]2CCN(C3CC3)C(=O)[C@@H]21)N1CCN(c2ccccc2)CC1 (racemic) [compound 8913] | 5.50 | – | 27.5% | – | –
CCCCN1CC[C@H]2C=CC[C@@H](C(=O)NCCc3ccccc3)[C@H]2C1=O (racemic) [compound 8918] | 5.49 | – | 12.6% | – | –
CCCCNC(=O)[C@@H]1CC=C[C@@H]2CCN(CCCC)C(=O)[C@@H]21 (racemic) [compound 8919] | 5.55 | – | 40.3% | – | –
O=C(NC1CCCCC1)[C@@H]1CC=C[C@@H]2CCN(Cc3ccccc3)C(=O)[C@@H]21 (racemic) [compound 8920, 2-Benzyl-N-cyclohexyl-1-oxo-1,2,3,4,4a,7,8,8a-octahydroisoquinoline-8-carboxamide] | 6.53 | – | 94.2% | – | –
O=C(NC1CCCCC1)[C@@H]1CC=C[C@@H]2CCN(C3CCCCC3)C(=O)[C@@H]21 (racemic) [compound 8922] | 6.78 | – | 8% | – | –
CCCCN1CC[C@H]2C=CC[C@@H](C(=O)NC3CCCCC3)[C@H]2C1=O (racemic) [compound 8923] | 5.99 | – | 67.6% | – | –
COc1ccc(CNC(=O)[C@@H]2CC=C[C@@H]3CCN(Cc4ccccc4)C(=O)[C@@H]32)cc1 (racemic) [compound 8924] | 5.43 | – | 18.8% | – | –
COc1ccc(CNC(=O)[C@@H]2CC=C[C@@H]3CCN(C4CCCCC4)C(=O)[C@@H]32)cc1 (racemic) [compound 8926] | 5.57 | – | 29% | – | –
O=C(NCc1cccnc1)[C@@H]1CC=C[C@@H]2CCN(C3CCCCC3)C(=O)[C@@H]21 (racemic) [compound 8931] | 6.26 | – | 67.7% | – | –
O=C(NCc1cccnc1)[C@@H]1CC=C[C@@H]2CCN(Cc3ccc(Cl)c(Cl)c3)C(=O)[C@@H]21 (racemic) [compound 8932] | 6.16 | – | 74.6% | – | –
O=C(Nc1ccccc1)[C@@H]1CC=C[C@@H]2CCN(C3CC3)C(=O)[C@@H]21 (racemic) [compound 8938] | 5.85 | – | 21.8% | – | –
O=C(Nc1ccccc1)[C@@H]1CC=C[C@@H]2CCN(C3CCCCC3)C(=O)[C@@H]21 (racemic) [compound 8939] | 7.15 | – | 133.7% | 5.05 | –
CCCCN1CC[C@H]2C=CC[C@@H](C(=O)Nc3ccccc3)[C@H]2C1=O (racemic) [compound 8940] | 6.17 | – | 112.1% | 5.21 | –

SMILES | pKi [1] | pKi [2] | KOR agonist (average percent efficacy relative to cognate agonist) [3] | pKi [4] | Emax values relative to U69593 [3]
COc1ccc(NC(=O)[C@@H]2CC=C[C@@H]3CCN(Cc4ccccc4)C(=O)[C@@H]32)cc1 (racemic) [compound 8943] | 6.05 | – | 72.9% | – | –
COc1ccc(NC(=O)[C@@H]2CC=C[C@@H]3CCN(C4CCCCC4)C(=O)[C@@H]32)cc1 (racemic) [compound 8945] | 5.75 | – | 54.3% | 5.25 | –
CCCCN1CC[C@H]2C=CC[C@@H](C(=O)Nc3ccc(OC)cc3)[C@H]2C1=O (racemic) [compound 8946] | 5.30 | – | 23.5% | – | –
O=C(Nc1ccc(Cl)cc1Cl)[C@@H]1CC=C[C@@H]2CCN(C3CCCCC3)C(=O)[C@@H]21 (racemic) [compound 8949] | 6.30 | – | 67.9% | – | –
CCCCN1CC[C@H]2C=CC[C@@H](C(=O)Nc3ccc(Cl)cc3Cl)[C@H]2C1=O (racemic) [compound 8950] | 5.94 | – | 72.9% | – | –
O=C(Nc1ccc(Cl)cc1Cl)[C@@H]1CC=C[C@@H]2CCN(Cc3ccc(Cl)c(Cl)c3)C(=O)[C@@H]21 (racemic) [compound 8951] | 5.61 | – | 23.2% | – | –
O=C(Nc1ccc(Cl)c(C(F)(F)F)c1)[C@@H]1CC=C[C@@H]2CCN(C3CC3)C(=O)[C@@H]21 (racemic) [compound 8954] | 6.31 | – | 66.4% | – | –
O=C(Nc1ccc(Cl)c(C(F)(F)F)c1)[C@@H]1CC=C[C@@H]2CCN(C3CCCCC3)C(=O)[C@@H]21 (racemic) [compound 8955] | 6.95 | – | 93.2% | – | –
COc1ccc(CN2CC[C@H]3C=CC[C@@H](C(=O)Nc4ccc(Cl)c(C(F)(F)F)c4)[C@H]3C2=O)cc1OC (racemic) [compound 8958] | – | 5.60 | – | – | –
O=C(Nc1ccc(Cl)c(C(F)(F)F)c1)[C@@H]1CC=C[C@@H]2CCN(c3ccccc3)C(=O)[C@@H]21 (racemic) [compound 10825] | 7.00 | – | – | – | 82%
O=C(Nc1ccc(Cl)c(C(F)(F)F)c1)C1CCCC2CCN(Cc3ccccc3)C(=O)C21 (racemic) [compound 11478] | 7.29 | 5.76 | – | – | –
O=C(Nc1cc(C(F)(F)F)ccc1Cl)C1CC=CC2CCN(C3CCCCC3)C(=O)C21 (racemic) [compound 11837] | 7.03 | – | – | 5.10 | 106%
O=C(NCc1ccc(Cl)c(C(F)(F)F)c1)[C@@H]1CC=C[C@@H]2CCN(c3ccccc3)C(=O)[C@@H]21 (racemic) [compound 11862] | 7.01 | – | – | – | 81%
O=C(Nc1ccc(Br)c(C(F)(F)F)c1)[C@@H]1CC=C[C@@H]2CCN(c3ccccc3)C(=O)[C@@H]21 (racemic) [compound 11863] | 7.92 | – | – | – | 95%
O=C(Nc1ccc(Cl)cc1C(F)(F)F)[C@@H]1CC=C[C@@H]2CCN(c3ccccc3)C(=O)[C@@H]21 (racemic) [compound 11864] | 7.17 | – | – | – | 119%
Cc1cc(NC(=O)[C@@H]2CC=C[C@@H]3CCN(c4ccccc4)C(=O)[C@@H]32)ccc1Cl (racemic) [compound 11866] | 7.47 | – | – | – | 123%
O=C(Nc1cccc(Cl)c1)[C@@H]1CC=C[C@@H]2CCN(CC3CCCCC3)C(=O)[C@@H]21 (racemic) [compound 11888] | 7.17 | – | – | – | 70%

From patent US8735391B2, “Synthesis of functionalized octahydro-isoquinolin-1-one-8-carboxamides, octahydro-isoquinolin-1-one-8-carboxylic esters and analogs, and therapeutic methods” (University of Kansas, priority 2008, dated 2014)
